From patent publication US20170007561A1, “CONTEMPORANEOUS, HETEROGENEOUSLY-ORIENTED, MULTI-TARGETED THERAPEUTIC MODIFICATION AND/OR MODULATION OF DISEASE BY ADMINISTRATION OF SULFUR-CONTAINING, AMINO ACID-SPECIFIC SMALL MOLECULES” (BioNumerik Pharmaceuticals, Inc., priority 2014, published 2017)
Numbering of substitutions follows the chain as printed. Entries after “also recorded” stand apart in the source; their conditions may differ.

Key:
[1] = test system: bovine brain microtubule protein (α-/β-tubulin); experiment: Microtubule protein polymerization assay (OD350); type: biochemical
[2] = target: T1, TrxR/Trx system (Homo sapiens, UniProt P10599); experiment: TrxR/Trx NADPH oxidation assay; type: biochemical
T1 construct: purchased Sigma (Trx); American Diagnostica (bovine TrxR)
T1 sequence (P10599 1-105): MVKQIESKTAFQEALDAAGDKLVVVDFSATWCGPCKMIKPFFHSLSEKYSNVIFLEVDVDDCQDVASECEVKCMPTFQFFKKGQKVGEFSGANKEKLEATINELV
Source text: (Note: error bars are small and may be obscured by the symbols). […] (Note: error bars were omitted but assays were run in quadruplicate with typical errors of 5-8% between individual replicates). […] Panel D: Initial velocity reaction rates corresponding to progress curves shown in Panel C. With time, Trx-mesna and Trx-GSH are converted back to apo-Trx by Trx reductase (see also, FIG. 69, Panel E).

[3] = target: T2, human Trx with rat liver TrxR (Homo sapiens, UniProt P10599); experiment: TrxR/Trx insulin disulfide reduction assay (NADPH oxidation 340 nm, insulin B chain precipitation 650 nm); type: biochemical; settings: Tavocept 0-10 mM, insulin 86 μM
T2 sequence (P10599 1-105): T1 sequence (P10599 1-105)

[4] = target: T3, Trx (E13K, D16K, E95K, E103K) (Homo sapiens, UniProt P10599, D16K/E103K/E13K/E95K); experiment: X-ray crystallography of Tavocept-derived mesna adduct on Trx; type: binding; settings: Tavocept 40 mM
T3 construct: 6xHis with TEV site (N, cleaved yes); made in house; host or cells: E. coli BL21(DE3)
T3 sequence (P10599 1-105 E13K/D16K/E95K/E103K): T1 sequence (P10599 1-105) with E13K, D16K, E95K, E103K
Experimental: Adduct was prepared as described above with some modifications designed to increase the likelihood of success in crystallization of the protein. […] This reaction was incubated for 1 hour at 30° C. followed by overnight incubation at 4° C. […] Aliquots of this solution were analyzed by ESI LC-MS to confirm the presence of adduct(s) prior to initiation of crystallization experiments.
These initial broad screens produced crystals under a wide range of conditions (data not shown) and the screens used included: (i) PEGION, CRYSTALS HT, and PEGRX (Hampton Research) and (ii) JCSG and BASIC (JENA Biosciences). Multiple rounds of optimization were completed and included fine screens, varying the protein concentration and varying the protein to reservoir ratios to obtain diffraction quality crystals. In the Trx pH 9.0/8.5 structure (adduct formed at pH 9.0, crystals grown at pH 8.5), the best crystals were obtained in 20% ethanol, 0.1 M Tris (at 60 mg/mL Trx protein) and diffracted to 2.5 Å (C2 space group). In Trx pH 9.0/7.0 (adduct formed at pH 9.0, crystals grown at pH 7.0), the best crystals were obtained in 20% PEG3350, 0.2 M KCl (60 mg/mL Trx protein) and diffracted to 2.8 Å (C2 space group). In Trx pH 7.0/7.0 (adduct formed at pH 7.0, crystals grown at pH 7.0), the best crystals were obtained in 28% PEG3350, 0.2M KCl (160 mg/mL Trx protein) and diffracted to 1.85 Å resolution (P21 space group).
The solution obtained was consistent with four molecules in the crystal asymmetric unit. […] Molecules C and D were substantially rebuilt and the Tavocept-derived mesna adduct added after protein rebuilding was complete. The structure solution was supported by contiguous electron density for the entire chain trace of each molecule, landmark side chain density features matching the amino acid sequence including cysteines, absence of phi-psi violations, and final R/Rfree values in the normal range. […] For the Trx pH 9.0/8.5 structure, residual density observed near Cys69 of molecule A was modeled as a Tavocept-derived mesna adduct in a dual conformation. […]

[5] = target: T4, Peroxiredoxin (Prx) (Homo sapiens, UniProt Q06830); experiment: Peroxiredoxin activity (summary Table 27); type: biochemical
T4 construct: purchased SigmaAldrich
T4 sequence (Q06830 whole entry): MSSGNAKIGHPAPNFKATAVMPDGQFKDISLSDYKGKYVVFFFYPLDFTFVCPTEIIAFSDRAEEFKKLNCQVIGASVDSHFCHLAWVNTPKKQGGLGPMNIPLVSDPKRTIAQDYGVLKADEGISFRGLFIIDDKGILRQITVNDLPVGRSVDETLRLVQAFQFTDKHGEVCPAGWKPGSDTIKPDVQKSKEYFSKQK

[6] = target: human peroxiredoxin 4 (PRX4) (Homo sapiens, UniProt Q13162); experiment: X-ray crystallography and Mass Spectrometry of Prx 4 with Tavocept-derived mesna; settings: 40 mM Tavocept; MS and X-ray
Sequence of human peroxiredoxin 4 (PRX4) (Q13162 79-271 limits assumed): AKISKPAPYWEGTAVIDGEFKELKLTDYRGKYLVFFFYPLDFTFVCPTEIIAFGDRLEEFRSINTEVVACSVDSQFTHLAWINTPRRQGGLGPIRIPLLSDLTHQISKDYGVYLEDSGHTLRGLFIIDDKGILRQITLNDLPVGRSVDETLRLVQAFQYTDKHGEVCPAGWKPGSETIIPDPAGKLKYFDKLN

SMILES: O=S(=O)([O-])CCSSCCS(=O)(=O)[O-].[Na+].[Na+] [Tavocept, disodium 2,2′-dithio-bis-ethane sulfonate]
- inhibition of paclitaxel promoted microtubule protein polymerization ([1]; 12 mM Tavocept, qualitative): approximately 50%
- effect on paclitaxel-promoted microtubule protein hyperpolymerization ([1]; Tavocept 1, 4, 8, 12 and 16 mM, paclitaxel 10 μM): inhibit paclitaxel-promoted microtubule protein hyperpolymerization in a dose-dependent manner; also recorded: normalizes
- effect on GTP-catalyzed polymerization of microtubule protein ([1]; Tavocept 4, 6, 8, and 10 mM preincubated with microtubule protein on ice for 20 minutes): dose-dependent inhibitory effect; also recorded: inhibit GTP-catalyzed polymerization; also recorded: modulate tubulin polymerization in a concentration dependent manner
- effect on paclitaxel/GTP/MgCl2-catalyzed microtubule protein hyperpolymerization ([1]; Tavocept 6, 8, 10 and 12 mM): inhibit paclitaxel/GTP/MgCl2-catalyzed microtubule protein hyperpolymerization in a dose dependent manner
- Tavocept concentration at which final polymerization with paclitaxel was essentially equal to GTP control ([1]; paclitaxel 10 μM): ≥ 6 mM
- Tavocept concentrations that reproducibly inhibit paclitaxel promoted hyperpolymerization ([1]; paclitaxel 10 μM): > 1 mM
- Tavocept concentrations giving net polymerization equivalent to GTP/MgCl2 only control ([1]; paclitaxel/GTP/MgCl2 10 μM/1 mM/1 mM): 6 to 8 mM
- mode of action on Trx [2]: alternative substrate inhibitor
- NADPH oxidation by TrxR and Trx ([2]; increasing concentrations of test substance): increases
- Effect on TrxR/Trx mediated rate of NADPH oxidation during insulin reduction [3]: an effect on the TrxR/Trx mediated rate of NADPH oxidation
- Mesna adduct site on Trx by X-ray ([4]; Trx pH 7.0/7.0 structure): clearly visible on Cys69 in both molecules A and B
- Mesna adduct site on Trx by X-ray ([4]; Trx pH 9.0/7.0 structure): clearly visible on both Cys69 and Cys62 in both molecules A and B
- Mesna adduct site on Trx by X-ray ([4]; Trx pH 9.0/8.5 structure): clearly visible on Cys69 in both molecules A and B
- Cellular consequence of BNP7787-modification and/or modulation: Prx [5]: BNP7787 disrupts active site structure (Prx) resulting in impaired
- Prx 4 cysteine residues carrying Tavocept-derived mesna moiety [6]: Cys124; also recorded: cysteine 124 (and possibly cysteine 245)
